Data as given in article PMC7679134, “Probing the ionotropic activity of glutamate GluD2 receptor in HEK cells with genetically-engineered photopharmacology” (eLife, 2020).
Positions count from the first letter of the chain named.

How the values were obtained:
Assay type in all cases: cell-based
[1] = biological target: T1, GluD2 (Mus musculus, UniProt Q61625, A654T/Q674C); assay: whole-cell patch-clamp photoswitching after covalent labeling
T1 construct: gene Grid2; pcDNA3-GluD2 expressed in HEK tsA201 cells
T1 sequence (Q61625 24-1007 A654T/Q674C): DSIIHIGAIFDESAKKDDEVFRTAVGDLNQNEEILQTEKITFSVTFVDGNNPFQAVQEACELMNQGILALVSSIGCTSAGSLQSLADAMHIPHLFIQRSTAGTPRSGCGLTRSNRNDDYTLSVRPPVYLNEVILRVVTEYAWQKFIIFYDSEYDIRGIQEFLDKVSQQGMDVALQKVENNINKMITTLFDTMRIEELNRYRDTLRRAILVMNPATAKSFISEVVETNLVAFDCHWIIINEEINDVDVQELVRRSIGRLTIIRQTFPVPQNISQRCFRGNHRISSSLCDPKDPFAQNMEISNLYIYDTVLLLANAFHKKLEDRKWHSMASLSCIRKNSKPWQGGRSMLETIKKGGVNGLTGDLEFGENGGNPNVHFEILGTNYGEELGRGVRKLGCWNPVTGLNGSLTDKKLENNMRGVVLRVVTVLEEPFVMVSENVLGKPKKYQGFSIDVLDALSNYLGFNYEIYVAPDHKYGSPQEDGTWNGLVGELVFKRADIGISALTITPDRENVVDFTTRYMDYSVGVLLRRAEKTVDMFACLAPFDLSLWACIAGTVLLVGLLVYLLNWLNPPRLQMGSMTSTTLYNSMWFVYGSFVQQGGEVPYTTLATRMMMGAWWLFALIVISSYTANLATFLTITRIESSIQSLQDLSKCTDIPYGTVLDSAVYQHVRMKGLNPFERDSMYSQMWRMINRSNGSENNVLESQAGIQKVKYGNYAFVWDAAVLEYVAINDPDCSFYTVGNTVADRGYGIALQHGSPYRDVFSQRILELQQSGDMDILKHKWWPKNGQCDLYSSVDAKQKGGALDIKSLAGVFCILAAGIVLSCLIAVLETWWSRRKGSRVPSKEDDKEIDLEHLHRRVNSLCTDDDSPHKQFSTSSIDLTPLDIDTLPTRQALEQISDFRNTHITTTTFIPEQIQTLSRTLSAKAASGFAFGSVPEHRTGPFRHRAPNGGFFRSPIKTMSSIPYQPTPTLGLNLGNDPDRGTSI

[2] = biological target: T2, GluD2 (Mus musculus, UniProt Q61625, A654T/Q666C); assay: as above
T2 construct: gene Grid2; pcDNA3-GluD2 expressed in HEK tsA201 cells
T2 sequence (Q61625 24-1007 A654T/Q666C): T1 sequence (Q61625 24-1007 A654T/Q674C) with Q643C, C651Q

[3] = biological target: T3, GluD2 (Mus musculus, UniProt Q61625, A654T/D670C); assay: as above
T3 construct: gene Grid2; pcDNA3-GluD2 expressed in HEK tsA201 cells
T3 sequence (Q61625 24-1007 A654T/D670C): T1 sequence (Q61625 24-1007 A654T/Q674C) with D647C, C651Q

[4] = biological target: T4, GluD2 (Mus musculus, UniProt Q61625, I677C); assay: patch-clamp of DHPG-induced current under […] vs […] nm light; WT control insensitive
T4 construct: gene Grid2; non-Lurcher GluD2 (LiGluD2) co-expressed with mGlu1b in HEK tsA201 cells
T4 sequence (Q61625 24-1007 I677C): T1 sequence (Q61625 24-1007 A654T/Q674C) with T631A, C651Q, I654C

[5] = biological target: T5, GluD2 (Mus musculus, UniProt Q61625, A654T/I677C); assay: whole-cell patch-clamp dose-response ([…]) under […] nm light; […] under […] nm
T5 construct: gene Grid2; pcDNA3-GluD2 expressed in HEK tsA201 cells, conjugated with MAGu
T5 sequence (Q61625 24-1007 A654T/I677C): T1 sequence (Q61625 24-1007 A654T/Q674C) with C651Q, I654C

IC50 [5]	SMILES	% photoswitching (relative to pentamidine block) [1]	% photoswitching (relative to pentamidine block) [2]	% photoswitching (relative to pentamidine block) [3]	% reduction of DHPG-induced current (535 vs 380 nm) [4]
–	N=C(N)NCC(=O)Nc1ccc(/N=N/c2ccc(NC(=O)CCN3C(=O)C=CC3=O)cc2)cc1 [MAGu]	20.5 % photoswitching (relative to pentamidine block)	15.5 % photoswitching (relative to pentamidine block)	14.6 % photoswitching (relative to pentamidine block)	22.8 % reduction of DHPG-induced current (535 vs 380 nm)
5.1 µM	N=C(N)c1ccc(OCCCCCOc2ccc(C(=N)N)cc2)cc1 [Pentamidine]	–	–	–	–
